Test results taken from ChEMBL document CHEMBL5649169 (ChemMedChem, 2018).

Experiments:
[1] = target: Bone morphogenetic protein receptor type-1A (Homo sapiens) (UniProt P36894)
[2] = target: eIF5-mimic protein 1 (Homo sapiens) (UniProt Q9Y6E2)
[3] = target: Cullin-4B (Homo sapiens) (UniProt Q13620)
[4] = target: Eukaryotic translation initiation factor 2-alpha kinase 1 (Homo sapiens) (UniProt Q9BQI3)
[5] = target: Lysophosphatidylcholine acyltransferase 1 (Homo sapiens) (UniProt Q8NF37)
[6] = target: Large subunit GTPase 1 homolog (Homo sapiens) (UniProt Q9H089)
[7] = target: Malate dehydrogenase, cytoplasmic (Homo sapiens) (UniProt P40925)
[8] = target: NUAK family SNF1-like kinase 2 (Homo sapiens) (UniProt Q9H093)
[9] = target: Programmed cell death protein 10 (Homo sapiens) (UniProt Q9BUL8)
[10] = target: Large ribosomal subunit protein eL19 (Homo sapiens) (UniProt P84098)
[11] = target: Small ribosomal subunit protein uS2 (Homo sapiens) (UniProt P08865)
[12] = target: Stearoyl-CoA desaturase (Homo sapiens) (UniProt O00767)
[13] = target: Dolichyl-diphosphooligosaccharide--protein glycosyltransferase subunit STT3B (Homo sapiens) (UniProt Q8TCJ2)
[14] = target: Zinc finger protein with KRAB and SCAN domains 2 (Homo sapiens) (UniProt Q63HK3)
[15] = target: ATP-binding cassette sub-family F member 2 (Homo sapiens) (UniProt Q9UG63)
[16] = target: Rho guanine nucleotide exchange factor 1 (Homo sapiens) (UniProt Q92888)
[17] = target: Conserved oligomeric Golgi complex subunit 2 (Homo sapiens) (UniProt Q14746)
[18] = target: Cleavage and polyadenylation specificity factor subunit 1 (Homo sapiens) (UniProt Q10570)
[19] = target: Desmoglein-1 (Homo sapiens) (UniProt Q02413)
[20] = target: Glutathione S-transferase kappa 1 (Homo sapiens) (UniProt Q9Y2Q3)
[21] = target: Very-long-chain (3R)-3-hydroxyacyl-CoA dehydratase 2 (Homo sapiens) (UniProt Q6Y1H2)
[22] = target: Histone H1.3 (Homo sapiens) (UniProt P16402)
[23] = target: Lysine-specific histone demethylase 1A (Homo sapiens) (UniProt O60341)
[24] = target: Small ribosomal subunit protein mS40 (Homo sapiens) (UniProt Q9Y676)
[25] = target: c-Myc-binding protein (Homo sapiens) (UniProt Q99417)
[26] = target: Unconventional myosin-Ig (Homo sapiens) (UniProt B0I1T2)
[27] = target: Nuclear cap-binding protein subunit 2 (Homo sapiens) (UniProt P52298)
[28] = target: Presenilin-associated rhomboid-like protein, mitochondrial (Homo sapiens) (UniProt Q9H300)
[29] = target: Periphilin-1 (Homo sapiens) (UniProt Q8NEY8)
[30] = organism: Homo sapiens
[31] = target: Small nuclear ribonucleoprotein F (Homo sapiens) (UniProt P62306)
[32] = organism: Homo sapiens; remark: listed apart in the source
[33] = target: Transducin beta-like protein 3 (Homo sapiens) (UniProt Q12788)
[34] = target: YTH domain-containing family protein 2 (Homo sapiens) (UniProt Q9Y5A9)
[35] = target: Calcyclin-binding protein (Homo sapiens) (UniProt Q9HB71)
[36] = target: Chloride intracellular channel protein 4 (Homo sapiens) (UniProt Q9Y696)
[37] = target: Conserved oligomeric Golgi complex subunit 6 (Homo sapiens) (UniProt Q9Y2V7)
[38] = target: Importin-7 (Homo sapiens) (UniProt O95373)
[39] = target: ER lumen protein-retaining receptor 1 (Homo sapiens) (UniProt P24390)
[40] = target: Matrin-3 (Homo sapiens) (UniProt P43243)
[41] = target: Methylcrotonoyl-CoA carboxylase beta chain, mitochondrial (Homo sapiens) (UniProt Q9HCC0)
[42] = target: DNA replication licensing factor MCM3 (Homo sapiens) (UniProt P25205)
[43] = target: NADH dehydrogenase [ubiquinone] 1 alpha subcomplex subunit 13 (Homo sapiens) (UniProt Q9P0J0)
[44] = target: NAD(P) transhydrogenase, mitochondrial (Homo sapiens) (UniProt Q13423)
[45] = organism: Homo sapiens; remark: listed apart in the source
[46] = target: Transaldolase (Homo sapiens) (UniProt P37837)
[47] = target: Elongation factor Tu, mitochondrial (Homo sapiens) (UniProt P49411)
Further: assay method not described here.

Sequence of Eukaryotic translation initiation factor 2-alpha kinase 1 (Homo sapiens) (Q9BQI3 whole entry): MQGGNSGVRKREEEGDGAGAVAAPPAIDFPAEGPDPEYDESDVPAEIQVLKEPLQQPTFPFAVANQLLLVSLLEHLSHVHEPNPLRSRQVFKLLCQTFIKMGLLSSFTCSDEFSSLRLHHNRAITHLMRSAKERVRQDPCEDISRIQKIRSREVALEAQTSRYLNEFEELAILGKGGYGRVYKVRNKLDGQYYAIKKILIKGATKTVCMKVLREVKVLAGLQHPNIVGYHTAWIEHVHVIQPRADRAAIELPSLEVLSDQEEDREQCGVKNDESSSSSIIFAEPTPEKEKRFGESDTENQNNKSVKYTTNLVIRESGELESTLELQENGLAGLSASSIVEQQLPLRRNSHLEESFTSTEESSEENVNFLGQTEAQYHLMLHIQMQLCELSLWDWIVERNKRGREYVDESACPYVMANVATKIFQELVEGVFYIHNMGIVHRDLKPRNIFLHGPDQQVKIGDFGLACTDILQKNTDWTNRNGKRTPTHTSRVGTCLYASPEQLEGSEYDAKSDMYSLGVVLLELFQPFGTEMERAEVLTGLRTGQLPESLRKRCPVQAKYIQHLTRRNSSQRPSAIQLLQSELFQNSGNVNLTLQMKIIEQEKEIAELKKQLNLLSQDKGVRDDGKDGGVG
Sequence of Glutathione S-transferase kappa 1 (Homo sapiens) (Q9Y2Q3 whole entry): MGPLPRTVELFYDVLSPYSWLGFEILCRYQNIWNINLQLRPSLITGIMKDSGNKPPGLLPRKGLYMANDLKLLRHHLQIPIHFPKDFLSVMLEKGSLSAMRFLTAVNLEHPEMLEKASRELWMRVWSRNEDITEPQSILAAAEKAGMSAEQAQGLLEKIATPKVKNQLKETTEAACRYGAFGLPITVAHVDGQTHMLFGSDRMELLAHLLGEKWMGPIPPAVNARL
Sequence of c-Myc-binding protein (Homo sapiens) (Q99417 whole entry): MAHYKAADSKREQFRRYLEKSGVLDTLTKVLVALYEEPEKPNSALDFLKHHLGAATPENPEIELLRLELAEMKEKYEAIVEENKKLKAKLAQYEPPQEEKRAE
Sequence of Programmed cell death protein 10 (Homo sapiens) (Q9BUL8 whole entry): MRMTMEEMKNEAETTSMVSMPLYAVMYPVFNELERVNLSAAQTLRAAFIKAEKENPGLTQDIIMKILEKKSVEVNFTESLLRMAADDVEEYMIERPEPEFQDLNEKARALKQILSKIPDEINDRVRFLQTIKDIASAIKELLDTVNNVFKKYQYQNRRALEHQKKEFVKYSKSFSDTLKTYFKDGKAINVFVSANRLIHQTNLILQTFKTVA
Sequence of Large subunit GTPase 1 homolog (Homo sapiens) (Q9H089 whole entry): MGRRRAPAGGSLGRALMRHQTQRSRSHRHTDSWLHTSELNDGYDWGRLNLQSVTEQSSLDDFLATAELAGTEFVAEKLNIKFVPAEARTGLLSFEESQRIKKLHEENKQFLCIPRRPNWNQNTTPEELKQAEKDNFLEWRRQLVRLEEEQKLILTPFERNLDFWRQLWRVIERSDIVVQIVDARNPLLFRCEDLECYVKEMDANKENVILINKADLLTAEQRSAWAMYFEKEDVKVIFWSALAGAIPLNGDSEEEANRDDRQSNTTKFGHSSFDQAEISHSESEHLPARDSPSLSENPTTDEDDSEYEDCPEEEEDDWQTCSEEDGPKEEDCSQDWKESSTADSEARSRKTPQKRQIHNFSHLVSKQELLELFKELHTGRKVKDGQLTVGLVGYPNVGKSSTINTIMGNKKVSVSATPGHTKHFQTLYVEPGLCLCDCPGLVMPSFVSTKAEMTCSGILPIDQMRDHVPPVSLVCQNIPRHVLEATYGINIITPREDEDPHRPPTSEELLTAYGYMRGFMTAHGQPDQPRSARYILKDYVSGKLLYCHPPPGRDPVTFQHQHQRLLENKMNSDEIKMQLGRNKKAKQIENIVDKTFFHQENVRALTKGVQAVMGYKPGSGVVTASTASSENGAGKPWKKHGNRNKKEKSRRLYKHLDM
Sequence of ATP-binding cassette sub-family F member 2 (Homo sapiens) (Q9UG63 whole entry): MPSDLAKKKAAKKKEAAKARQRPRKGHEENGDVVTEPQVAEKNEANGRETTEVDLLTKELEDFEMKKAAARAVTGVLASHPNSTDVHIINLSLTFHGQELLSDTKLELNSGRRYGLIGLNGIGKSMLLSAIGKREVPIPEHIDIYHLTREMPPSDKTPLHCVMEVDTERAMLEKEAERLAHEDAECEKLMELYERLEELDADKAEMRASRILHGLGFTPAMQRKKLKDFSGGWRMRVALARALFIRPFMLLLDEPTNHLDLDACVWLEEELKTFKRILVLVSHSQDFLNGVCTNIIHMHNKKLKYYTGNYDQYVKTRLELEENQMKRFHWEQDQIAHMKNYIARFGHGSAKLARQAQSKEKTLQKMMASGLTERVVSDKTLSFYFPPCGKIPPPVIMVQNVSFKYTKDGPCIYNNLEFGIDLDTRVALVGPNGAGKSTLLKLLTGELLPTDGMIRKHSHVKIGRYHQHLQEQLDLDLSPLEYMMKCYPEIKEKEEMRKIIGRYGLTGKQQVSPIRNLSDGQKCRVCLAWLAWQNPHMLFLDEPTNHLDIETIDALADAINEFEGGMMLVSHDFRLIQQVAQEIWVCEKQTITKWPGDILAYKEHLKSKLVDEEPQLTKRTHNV
Sequence of eIF5-mimic protein 1 (Homo sapiens) (Q9Y6E2 whole entry): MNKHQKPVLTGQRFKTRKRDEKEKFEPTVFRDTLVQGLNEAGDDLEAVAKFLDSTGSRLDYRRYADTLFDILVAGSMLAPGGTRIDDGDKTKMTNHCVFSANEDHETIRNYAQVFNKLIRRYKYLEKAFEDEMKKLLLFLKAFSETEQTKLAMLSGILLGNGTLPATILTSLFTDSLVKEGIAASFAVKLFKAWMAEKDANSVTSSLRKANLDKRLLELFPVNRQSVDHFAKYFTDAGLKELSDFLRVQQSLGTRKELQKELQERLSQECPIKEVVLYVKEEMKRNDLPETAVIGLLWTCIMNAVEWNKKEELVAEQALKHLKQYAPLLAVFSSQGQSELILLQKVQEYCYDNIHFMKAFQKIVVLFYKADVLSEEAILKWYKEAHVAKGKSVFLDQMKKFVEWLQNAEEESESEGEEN
Sequence of Cleavage and polyadenylation specificity factor subunit 1 (Homo sapiens) (Q10570 whole entry): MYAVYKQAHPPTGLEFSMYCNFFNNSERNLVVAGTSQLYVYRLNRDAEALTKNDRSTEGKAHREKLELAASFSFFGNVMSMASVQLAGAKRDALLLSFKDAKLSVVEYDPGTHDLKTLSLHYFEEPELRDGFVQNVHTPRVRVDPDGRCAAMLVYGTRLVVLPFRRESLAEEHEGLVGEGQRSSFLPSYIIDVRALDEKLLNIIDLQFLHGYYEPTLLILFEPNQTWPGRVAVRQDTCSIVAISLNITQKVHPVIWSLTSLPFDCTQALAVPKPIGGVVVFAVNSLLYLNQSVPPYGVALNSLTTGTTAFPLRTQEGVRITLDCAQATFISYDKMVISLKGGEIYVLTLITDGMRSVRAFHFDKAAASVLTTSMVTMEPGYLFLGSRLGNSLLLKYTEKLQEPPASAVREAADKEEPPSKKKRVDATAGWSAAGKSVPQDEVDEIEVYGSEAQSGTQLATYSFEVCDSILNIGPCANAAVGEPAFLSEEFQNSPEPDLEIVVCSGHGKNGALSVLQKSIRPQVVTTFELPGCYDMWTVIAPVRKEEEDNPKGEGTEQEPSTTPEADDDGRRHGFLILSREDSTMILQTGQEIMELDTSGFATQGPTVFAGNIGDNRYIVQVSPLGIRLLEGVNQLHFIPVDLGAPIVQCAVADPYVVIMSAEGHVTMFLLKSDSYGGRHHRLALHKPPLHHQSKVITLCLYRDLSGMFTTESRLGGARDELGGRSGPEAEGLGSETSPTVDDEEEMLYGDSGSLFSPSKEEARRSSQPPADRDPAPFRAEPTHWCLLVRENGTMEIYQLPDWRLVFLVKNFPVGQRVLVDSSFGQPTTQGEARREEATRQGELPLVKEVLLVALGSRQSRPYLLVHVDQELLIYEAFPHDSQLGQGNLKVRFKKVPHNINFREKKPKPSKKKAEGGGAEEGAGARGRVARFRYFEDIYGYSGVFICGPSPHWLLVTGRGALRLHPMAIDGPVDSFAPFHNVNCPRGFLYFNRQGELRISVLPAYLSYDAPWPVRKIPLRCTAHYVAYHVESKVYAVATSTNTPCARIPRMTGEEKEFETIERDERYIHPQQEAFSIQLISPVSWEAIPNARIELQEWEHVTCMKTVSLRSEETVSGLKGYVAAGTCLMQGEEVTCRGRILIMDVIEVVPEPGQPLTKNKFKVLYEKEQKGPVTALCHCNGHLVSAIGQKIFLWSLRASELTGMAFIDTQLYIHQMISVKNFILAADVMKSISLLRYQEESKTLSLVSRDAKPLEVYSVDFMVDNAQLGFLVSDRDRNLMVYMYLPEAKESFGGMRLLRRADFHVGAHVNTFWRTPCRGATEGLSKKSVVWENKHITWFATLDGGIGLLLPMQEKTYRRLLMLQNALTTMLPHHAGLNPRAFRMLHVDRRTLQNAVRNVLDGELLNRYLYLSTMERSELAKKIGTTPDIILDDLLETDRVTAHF
Sequence of Bone morphogenetic protein receptor type-1A (Homo sapiens) (P36894 whole entry): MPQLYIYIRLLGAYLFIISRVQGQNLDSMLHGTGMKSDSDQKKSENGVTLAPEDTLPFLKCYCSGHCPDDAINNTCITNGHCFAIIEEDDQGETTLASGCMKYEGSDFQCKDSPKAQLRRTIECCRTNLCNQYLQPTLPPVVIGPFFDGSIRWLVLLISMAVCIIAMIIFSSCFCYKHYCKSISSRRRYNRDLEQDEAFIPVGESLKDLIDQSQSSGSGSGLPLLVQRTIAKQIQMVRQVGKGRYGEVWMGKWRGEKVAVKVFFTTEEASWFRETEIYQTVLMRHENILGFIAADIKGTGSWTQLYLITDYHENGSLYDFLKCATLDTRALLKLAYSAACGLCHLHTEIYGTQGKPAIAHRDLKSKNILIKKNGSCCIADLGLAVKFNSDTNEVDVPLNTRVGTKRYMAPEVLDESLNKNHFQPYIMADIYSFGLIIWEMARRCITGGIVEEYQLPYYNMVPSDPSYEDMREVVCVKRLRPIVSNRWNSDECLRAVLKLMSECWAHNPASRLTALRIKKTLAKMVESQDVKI
Sequence of NADH dehydrogenase [ubiquinone] 1 alpha subcomplex subunit 13 (Homo sapiens) (Q9P0J0 whole entry, one chain of several): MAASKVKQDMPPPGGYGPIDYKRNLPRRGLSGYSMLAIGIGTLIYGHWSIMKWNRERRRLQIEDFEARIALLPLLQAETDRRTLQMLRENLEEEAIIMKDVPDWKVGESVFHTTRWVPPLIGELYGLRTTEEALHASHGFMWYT

With `Cc1ccc(C(=O)Nc2cccc(C(F)(F)F)c2)cc1Nc1nc(-c2cccnc2)nc2c1cnn2C` the ED50 [1] was 990 nM, the ED50 [2] was 16.7 nM and the ED50 [3] was 1760 nM. The ED50 [4] was 25600 nM, the ED50 [5] was 896 nM and the ED50 [6] was 0.521 nM. The ED50 [7] was 91400 nM, the ED50 [8] was 1310 nM and the ED50 [9] was 2.15 nM. For the same compound, the ED50 [10] was 2930 nM, the ED50 [11] was 1960 nM and the ED50 [12] was 4.65 nM. It also gave an ED50 [13] of 626 nM, an ED50 [14] of 932 nM and an ED50 [15] of 5470 nM. It also gave an ED50 [16] of 1700 nM, an ED50 [17] of 3450 nM and an ED50 [18] of 11.8 nM. For the same compound, the ED50 [19] was 47500 nM, the ED50 [20] was 6960 nM and the ED50 [21] was 23700 nM. For the same compound, the ED50 [22] was 10400 nM, the ED50 [23] was 0.417 nM and the ED50 [24] was 15600 nM. For the same compound, the ED50 [25] was 249000 nM, the ED50 [26] was 2.17 nM and the ED50 [27] was 2.29 nM. It also gave an ED50 [28] of 4.51 nM, an ED50 [29] of 336 nM and an ED50 [30] of 29.9 nM. It also gave an ED50 [31] of 143000 nM, an ED50 [32] of 192 nM and an ED50 [33] of 4700 nM. For the same compound, the ED50 [34] was 68.5 nM.
With `Cc1ccc(C(=O)Nc2cccc(C(F)(F)F)c2)cc1Nc1nc(-c2cccnc2)nc2nn(C)cc12` the ED50 [35] was 506 nM, the ED50 [36] was 53.4 nM and the ED50 [37] was 139000 nM. The ED50 [38] was 18.1 nM, the ED50 [39] was 0.253 nM and the ED50 [40] was 22.7 nM. The ED50 [41] was 102 nM, the ED50 [42] was 28.9 nM and the ED50 [43] was 5.85 nM. For the same compound, the ED50 [44] was 5.68 nM, the ED50 [45] was 5.99 nM and the ED50 [46] was 359 nM. For the same compound, the ED50 [47] was 32700 nM.
